Here are results for 14 compounds from PubChem BioAssay (NCI).

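Compound exposure: 48 hours, 5 concentrations, 96-well plates. TGI marks complete inhibition of growth.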

Some test systems named below: ACHN renal; SK-OV-3 ovarian; 786-0 renal; KM12 colon; SF-539 CNS; UACC-257 melanoma; EKVX NSCLC; SK-MEL-28 melanoma; MCF7 breast; HCT-15 colon.
Experiment in all cases: growth of human tumour cells (NCI), 48 h

Take `CN(CC(=O)O)c1ncc2c(n1)CCCC2`: the TGI in the assay with ACHN renal, with SK-OV-3 ovarian, with 786-0 renal, in the assay on KM12 colon, with SF-539 CNS and with UACC-257 melanoma was over 100 µM each time. Moreover, the TGI with EKVX NSCLC, in the assay with SK-MEL-28 melanoma, with MCF7 breast and with HCT-15 colon was over 100 µM throughout.
As for `CC(C)(C)OC(=O)[C@H]1CCC(=S)N1Cc1ccccc1`, the TGI in the assay on ACHN renal, with SK-OV-3 ovarian, with 786-0 renal, with KM12 colon, in the assay on SF-539 CNS and with UACC-257 melanoma was over 100 µM throughout. Moreover, the TGI with EKVX NSCLC, in the assay with SK-MEL-28 melanoma, in the assay on MCF7 breast and in the assay on HCT-15 colon was over 100 µM throughout.
In the case of `Cc1cc(S(=O)(=O)Nc2n[nH]c(N)n2)c(SCC(=O)O)cc1Cl`, the TGI in the assay with ACHN renal, in the assay with SK-OV-3 ovarian, in the assay on 786-0 renal, with KM12 colon, with SF-539 CNS and in the assay on UACC-257 melanoma was over 10 µM each time. The TGI in the assay with EKVX NSCLC, in the assay on SK-MEL-28 melanoma, in the assay on MCF7 breast and in the assay on HCT-15 colon was over 10 µM throughout.
Consider `O=Cc1[nH]c(=O)[nH]c(=O)c1C(=O)O`, for which the TGI with ACHN renal, in the assay with SK-OV-3 ovarian, in the assay with 786-0 renal, in the assay with KM12 colon, in the assay with SF-539 CNS and in the assay on UACC-257 melanoma was over 100 µM in each case. Further, the TGI with EKVX NSCLC, in the assay on SK-MEL-28 melanoma, with MCF7 breast and in the assay with HCT-15 colon was over 100 µM in each case.
Take `CN1C2CCC1CC(=CCOC(c1ccc(F)cc1)c1ccc(F)cc1)C2`: the TGI came to 31.8 µM with ACHN renal; 31.3 µM in the assay with SK-OV-3 ovarian; 27.9 µM with 786-0 renal; 29.6 µM with KM12 colon; 31.9 µM in the assay with SF-539 CNS; 31.7 µM with UACC-257 melanoma. For the same compound, the TGI was determined as 40.8 µM in the assay on EKVX NSCLC, 47.9 µM in the assay on SK-MEL-28 melanoma, 34.6 µM with MCF7 breast and 29.6 µM in the assay with HCT-15 colon.
In the case of `O=C1/C(=C/c2ccccc2S)N=C(c2ccccc2)N1c1nc2c(Cl)cc(Cl)cc2s1`, the TGI in the assay on ACHN renal was 58 µM; in the assay with SK-OV-3 ovarian, 66 µM; in the assay with 786-0 renal it was 74.1 µM; with KM12 colon, 88.1 µM; in the assay with SF-539 CNS, 40.8 µM; with UACC-257 melanoma, over 100 µM. The TGI in the assay with EKVX NSCLC is 36 µM; with SK-MEL-28 melanoma it was over 100 µM; in the assay with MCF7 breast it was 58.1 µM; in the assay with HCT-15 colon it was over 100 µM.
Consider `Fc1cc(-c2cc(-c3ccccc3)no2)c(Cl)cc1Cl`, for which the TGI in the assay on ACHN renal is over 59.6 µM; in the assay on SK-OV-3 ovarian it was over 50.3 µM; in the assay on 786-0 renal, over 33.6 µM; with KM12 colon, over 58.4 µM; in the assay with SF-539 CNS, over 17.2 µM; in the assay with UACC-257 melanoma, over 71.6 µM. Besides, the TGI was over 51.9 µM in the assay on EKVX NSCLC, over 56.4 µM with SK-MEL-28 melanoma, over 100 µM with MCF7 breast and over 68.4 µM in the assay on HCT-15 colon.
On to `CCOC(=O)C12OC(CCC1=O)C(C(=O)OC)=C2C(=O)OC` (stereo not given), for which the TGI with ACHN renal, in the assay on SK-OV-3 ovarian, in the assay with 786-0 renal, with KM12 colon, in the assay with SF-539 CNS and in the assay on UACC-257 melanoma was over 10 µM each time. Further, the TGI in the assay on EKVX NSCLC, in the assay with SK-MEL-28 melanoma, in the assay with MCF7 breast and in the assay with HCT-15 colon was over 10 µM throughout.
With `Cc1ccnc2[nH]c3ccccc3c(=O)c12`, the TGI is over 100 µM in the assay on ACHN renal; over 100 µM in the assay with SK-OV-3 ovarian; over 100 µM in the assay on 786-0 renal; 50.3 µM with KM12 colon; 46.6 µM in the assay on SF-539 CNS; over 100 µM in the assay with UACC-257 melanoma. The TGI in the assay on EKVX NSCLC is 71.7 µM; in the assay on SK-MEL-28 melanoma, 47.5 µM; in the assay with MCF7 breast, over 100 µM; with HCT-15 colon, over 100 µM.
In the case of `O=C(O)[C@@H]1CCS(=O)(=O)N1`, the TGI in the assay on ACHN renal, with SK-OV-3 ovarian, in the assay with 786-0 renal, with KM12 colon, in the assay with SF-539 CNS and with UACC-257 melanoma was over 100 µM throughout. The TGI in the assay on EKVX NSCLC, in the assay on SK-MEL-28 melanoma, in the assay with MCF7 breast and with HCT-15 colon was over 100 µM throughout.
`CCOC(=O)c1nnc2c(C(=O)OCC)c3ccccc3n2c1N`: the TGI in the assay with ACHN renal was over 100 µM; in the assay on SK-OV-3 ovarian, 91.8 µM; in the assay on 786-0 renal, over 100 µM; with KM12 colon, 66.8 µM; in the assay with SF-539 CNS, over 100 µM; in the assay on UACC-257 melanoma it was 11.1 µM. In addition, the TGI in the assay with EKVX NSCLC, in the assay on SK-MEL-28 melanoma, with MCF7 breast and with HCT-15 colon was over 100 µM each time.
With `Oc1[nH]c2ccccc2c1N=NC(=S)Nc1cccc(Cl)c1`, the TGI was determined as 28.8 µM in the assay with ACHN renal; 61.1 µM in the assay with SK-OV-3 ovarian; 27.6 µM in the assay with 786-0 renal; 58.8 µM in the assay with KM12 colon; 22.4 µM with SF-539 CNS; 75.5 µM in the assay on UACC-257 melanoma. In addition, the TGI in the assay on EKVX NSCLC, in the assay with SK-MEL-28 melanoma, in the assay on MCF7 breast and with HCT-15 colon was over 100 µM throughout.
Turning to `O=C(Oc1ccccn1)c1cc2cc(CCl)ccc2oc1=O`, the TGI in the assay with ACHN renal was over 100 µM; in the assay on SK-OV-3 ovarian, over 100 µM; with 786-0 renal it was 39.6 µM; in the assay on KM12 colon, over 100 µM; in the assay with SF-539 CNS, over 100 µM; with UACC-257 melanoma it was over 100 µM. Besides, the TGI in the assay with EKVX NSCLC, in the assay with SK-MEL-28 melanoma, in the assay with MCF7 breast and in the assay with HCT-15 colon was over 100 µM in each case.
Take `C[C@H](CCC(=O)O)[C@H]1CC[C@H]2[C@@H]3CC[C@@H]4C[C@H](O)CC[C@]4(C)[C@H]3C[C@H](O)[C@]12C`: the TGI was over 100 µM in the assay with ACHN renal; 78.1 µM in the assay with SK-OV-3 ovarian; over 100 µM in the assay on 786-0 renal; over 100 µM in the assay with KM12 colon; 99 µM in the assay on SF-539 CNS; over 100 µM with UACC-257 melanoma. Further, the TGI with EKVX NSCLC, with SK-MEL-28 melanoma, in the assay with MCF7 breast and with HCT-15 colon was over 100 µM each time.
